Data on two substances can be found in patent EP0075626A1, “Novel rutin nona- and deca(H-)sulfate salts, methods of preparing novel salts, and use of novel salts of complement inhibitors” (AMERICAN CYANAMID COMPANY, priority 1981, dated 1983).

The target in this assay is T1, activated complement protein Cl (Homo sapiens, UniProt P09871).
T1 sequence (P09871 16-437 limits assumed): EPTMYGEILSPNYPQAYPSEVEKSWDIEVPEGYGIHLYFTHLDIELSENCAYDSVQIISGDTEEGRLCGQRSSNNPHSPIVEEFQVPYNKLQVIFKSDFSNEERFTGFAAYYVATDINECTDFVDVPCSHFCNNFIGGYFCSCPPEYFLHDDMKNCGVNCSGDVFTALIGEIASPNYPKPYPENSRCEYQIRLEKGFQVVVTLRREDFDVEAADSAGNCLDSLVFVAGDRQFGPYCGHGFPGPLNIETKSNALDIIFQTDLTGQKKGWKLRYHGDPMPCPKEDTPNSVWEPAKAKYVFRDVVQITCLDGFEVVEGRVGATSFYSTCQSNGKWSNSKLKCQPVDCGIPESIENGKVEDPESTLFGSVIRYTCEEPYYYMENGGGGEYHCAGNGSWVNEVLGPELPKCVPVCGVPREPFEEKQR
T1 sequence (P09871 438-688 limits assumed): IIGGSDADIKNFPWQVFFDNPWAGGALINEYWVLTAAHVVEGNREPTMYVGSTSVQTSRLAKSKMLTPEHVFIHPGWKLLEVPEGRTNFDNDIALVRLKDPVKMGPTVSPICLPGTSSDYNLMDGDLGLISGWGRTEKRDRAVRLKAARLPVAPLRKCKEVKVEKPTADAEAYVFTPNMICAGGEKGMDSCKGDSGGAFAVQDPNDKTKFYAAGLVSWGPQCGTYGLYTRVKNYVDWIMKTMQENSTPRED
In words: Test Code 026 (C 1 inhibitor): protection of fluid phase C2 from activated C1 in the presence of C4, serial dilution assay. It counts as biochemical. As to conditions: for times as active as the mixture of hexa- through deca- salts produced by Example 2 of European Application No. 13470A: Test Code 026, worked out from well numbers, two-fold serial dilutions; for In Vitro Activity Test Code 026: activity in wells, two-fold serial dilution assay, the higher the well number the higher the activity. From the text:
An active inhibitor protects C2 from Cl and C4.
This test measures activity in wells by a serial dilution assay. The higher the well number the higher is the activity. The serial dilutions are two-fold, so that in the test shown above the rutin deca(H-)sulfate sodium salt in accordance with this invention is 16 times as active as the mixture of hexa- through deca- salts produced by Example 2 of European Application No. 13470A, whilst the rutin nona(H-)sulfate sodium salt in accordance with this invention is 8 times as active as the aforesaid mixture.

Take “Rutin deca (H-sulfate) Sodium Salt [Rutin deca(H-)sulfate sodium salt]”: the “times as active as the mixture of hexa- through deca- salts produced by Example 2 of European Application No. 13470A” value was 16 times and the “In Vitro Activity Test Code 026” value is reported as “+11”.

As for “Rutin nona (H-sulfate) Sodium Salt [Rutin nona(H-)sulfate sodium salt]”, the “times as active as the mixture of hexa- through deca- salts produced by Example 2 of European Application No. 13470A” value is 8 times and the “In Vitro Activity Test Code 026” value is reported as “+10”.
